Read-outs that look alike come from different tables or passages of the source.
What was measured:
MCF-7 cells = assay: MTT cytotoxicity assay, MCF-7 breast cancer cells; assay type: cell-based; conditions: Homo sapiens, MCF7; MTT test, 72 h; read-out: MCF-7 IC50 (μM) ± SD
Procedure: The cytotoxic profile of 19 and 27 was assessed on a wider panel of human tumor cell lines including also examples of breast (MCF-7), cervical (A431), colorectal (HCT-15), and ovarian (2008) cancers as well as melanoma (A375), besides lung (A549) and pancreatic (BxPC3) cancer cells. IC50 values, calculated from the dose-survival curves obtained after 72 h of drug treatment from the MTT test, are reported in Table 2. […] Both compounds were endowed with a cytotoxic potency higher than that of SU, eliciting IC50 values in the low micromolar range.
All compounds, except derivative 27, were dissolved in DMSO just before the experiment, and a calculated amount of drug solution was added to the cell growth medium to a final solvent concentration of 0.5%, which had no discernible effect on cell killing. Compound 27 was dissolved in a 0.9% NaCl solution just before the experiment.
Human lung (A549), breast (MCF-7), pancreas (BxPC3), and colon (LoVo) carcinoma cell lines along with melanoma (A375) were obtained from American Type Culture Collection (ATCC, Rockville, MD). Human non-tumor embryonic kidney HEK293 cells were obtained from European Collection of Cell Cultures (ECACC, Salisbury, UK). Human cervical carcinoma A431cells were kindly provided by Prof. F. Zunino (Division of Experimental Oncology B, Istituto Nazionale dei Tumori, Milan, Italy). Human ovarian cancer 2008 cells were kindly provided by Prof. G. Marverti (Dept. of Biomedical Science of Modena University, Italy). […]
The growth inhibitory effect towards human cell lines was evaluated by means of MTT (tetrazolium salt reduction) assay. […] After overnight incubation, the inhibition of cell growth induced by the tested complexes was detected by measuring the absorbance of each well at 570 nm using a Bio-Rad 680 microplate reader (Bio-Rad, Hercules, CA). Mean absorbance for each drug dose was expressed as a percentage of the control untreated well absorbance and plotted vs drug concentration.

CSF1R = molecular target: T1, CSF1R (Homo sapiens, UniProt P07333); assay: KinomeScan Kd determination, CSF1R; assay type: binding; conditions: for KdRTK/KdKIT, CSF1R: Kd CSF1R over Kd KIT; for Kd: KinomeScan
T1 construct: purchased DiscoverX (KinomeScan service)
Procedure: (§1) The compounds were evaluated using the KinomeScan™ platform (http://www.discoverx.com/services/drug-discovery-development-services/kinase-profiling/kinomescan), that measures the ability of the test compound to disrupt the complex between a high affinity ATP-mimic probe immobilized on a solid support and the kinase of interest. The KinomeScan is a very helpful technology for the fast and reliable screening of a number of compounds against a wide and customizable panel of kinases. Besides, it is not based on the use of hazardous radioactive ^32P-ATP and has a very low rate of false positive (<1%)[44]. The screening platform outputs a “Percent of Control” (POC) value, statistically correlated to the dissociation constant (Kd) value (http://www.discoverx.com/tools-resources/leadhunter-study-reports-data-analysis), for each pair of kinase/ligand. The POC is calculated as reported in equation (1): […]
(§2) The ability of compounds 19 and 27 to bind the class III RTK members was measured (Table 2; see also Figs S3 and S4 for dose/response curves).
(§3) Figure S3. Dose/response curve for compound 19 against tested kinases for Kd determination. The amount of kinase measured by qPCR (Signal; y-axis) is plotted against the corresponding compound concentration in nM in log10 scale (x-axis). Data points marked with an "x" were not used for Kd determination.
(§4) (1 picture or pasted object on this page, not shown here)
(§5) Figure S4. Dose/response curve for compound 27 against tested kinases for Kd

PDGFRβ = molecular target: T2, PDGFRβ (Homo sapiens, UniProt P09619); assay: KinomeScan Kd determination, PDGFRβ; assay type: binding; conditions: for KdRTK/KdKIT, PDGFRβ: Kd PDGFRβ over Kd KIT; for Kd: KinomeScan
T2 construct: purchased DiscoverX (KinomeScan service)
Procedure: as §1, §2, §3, §4, §5

PDGFRα = molecular target: T3, PDGFRα (Homo sapiens, UniProt P16234); assay: KinomeScan Kd determination, PDGFRα; assay type: binding; conditions: for KdRTK/KdKIT, PDGFRα: Kd PDGFRα over Kd KIT; for Kd: KinomeScan
T3 construct: purchased DiscoverX (KinomeScan service)
Procedure: as §1, §2, §3, §4, §5

T2 sequence (P09619 33-1106): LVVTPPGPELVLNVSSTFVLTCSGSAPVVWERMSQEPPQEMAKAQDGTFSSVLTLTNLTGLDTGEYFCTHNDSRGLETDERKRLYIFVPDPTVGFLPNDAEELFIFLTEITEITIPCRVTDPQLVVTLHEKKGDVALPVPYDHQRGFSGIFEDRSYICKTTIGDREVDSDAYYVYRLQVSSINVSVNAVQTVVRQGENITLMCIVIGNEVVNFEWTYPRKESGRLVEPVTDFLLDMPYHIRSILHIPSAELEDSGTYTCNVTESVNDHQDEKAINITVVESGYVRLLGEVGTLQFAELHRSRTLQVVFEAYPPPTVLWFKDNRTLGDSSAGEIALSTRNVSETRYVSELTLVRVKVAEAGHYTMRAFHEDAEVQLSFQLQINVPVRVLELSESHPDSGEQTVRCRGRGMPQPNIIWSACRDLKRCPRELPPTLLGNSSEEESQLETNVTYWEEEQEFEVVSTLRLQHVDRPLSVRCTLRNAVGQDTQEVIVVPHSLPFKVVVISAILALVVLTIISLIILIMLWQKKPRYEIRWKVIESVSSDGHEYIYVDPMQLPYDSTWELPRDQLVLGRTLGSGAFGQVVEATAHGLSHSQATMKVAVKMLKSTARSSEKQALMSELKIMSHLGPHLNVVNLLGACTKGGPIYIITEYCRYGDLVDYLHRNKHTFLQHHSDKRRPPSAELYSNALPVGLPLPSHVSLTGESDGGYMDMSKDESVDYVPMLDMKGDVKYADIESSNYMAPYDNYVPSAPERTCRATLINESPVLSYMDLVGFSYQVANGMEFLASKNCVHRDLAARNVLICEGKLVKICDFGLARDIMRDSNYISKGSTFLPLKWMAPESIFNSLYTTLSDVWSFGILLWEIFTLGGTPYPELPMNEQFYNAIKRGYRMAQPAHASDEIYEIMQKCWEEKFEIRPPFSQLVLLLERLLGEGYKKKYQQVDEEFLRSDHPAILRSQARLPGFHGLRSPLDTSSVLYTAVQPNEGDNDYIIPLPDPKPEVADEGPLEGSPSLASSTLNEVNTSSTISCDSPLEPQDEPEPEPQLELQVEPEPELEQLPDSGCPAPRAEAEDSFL
T1 sequence (P07333 20-972): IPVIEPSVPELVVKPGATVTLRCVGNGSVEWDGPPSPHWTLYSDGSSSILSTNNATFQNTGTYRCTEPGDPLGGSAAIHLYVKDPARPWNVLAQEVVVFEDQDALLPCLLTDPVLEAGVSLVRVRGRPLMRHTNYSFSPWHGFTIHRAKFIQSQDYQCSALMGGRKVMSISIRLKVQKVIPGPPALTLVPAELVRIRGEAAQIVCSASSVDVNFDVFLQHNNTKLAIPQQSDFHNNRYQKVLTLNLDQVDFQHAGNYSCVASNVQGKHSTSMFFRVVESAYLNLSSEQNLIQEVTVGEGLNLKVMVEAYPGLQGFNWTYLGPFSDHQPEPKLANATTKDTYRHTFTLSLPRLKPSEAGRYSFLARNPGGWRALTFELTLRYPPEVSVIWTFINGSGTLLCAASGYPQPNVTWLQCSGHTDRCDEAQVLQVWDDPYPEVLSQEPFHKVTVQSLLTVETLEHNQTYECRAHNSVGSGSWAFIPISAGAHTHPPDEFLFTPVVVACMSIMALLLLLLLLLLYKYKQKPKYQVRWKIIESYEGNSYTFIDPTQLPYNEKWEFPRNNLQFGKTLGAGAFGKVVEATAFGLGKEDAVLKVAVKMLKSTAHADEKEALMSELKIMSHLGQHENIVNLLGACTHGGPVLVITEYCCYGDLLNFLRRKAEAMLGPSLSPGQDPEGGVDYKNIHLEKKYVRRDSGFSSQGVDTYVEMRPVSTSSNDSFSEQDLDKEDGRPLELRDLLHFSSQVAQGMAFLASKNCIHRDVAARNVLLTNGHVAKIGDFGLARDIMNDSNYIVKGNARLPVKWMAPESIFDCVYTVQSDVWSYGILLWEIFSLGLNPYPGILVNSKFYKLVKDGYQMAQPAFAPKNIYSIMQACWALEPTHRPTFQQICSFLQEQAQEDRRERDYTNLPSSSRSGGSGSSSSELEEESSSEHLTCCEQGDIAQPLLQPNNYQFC
T3 sequence (P16234 24-1089): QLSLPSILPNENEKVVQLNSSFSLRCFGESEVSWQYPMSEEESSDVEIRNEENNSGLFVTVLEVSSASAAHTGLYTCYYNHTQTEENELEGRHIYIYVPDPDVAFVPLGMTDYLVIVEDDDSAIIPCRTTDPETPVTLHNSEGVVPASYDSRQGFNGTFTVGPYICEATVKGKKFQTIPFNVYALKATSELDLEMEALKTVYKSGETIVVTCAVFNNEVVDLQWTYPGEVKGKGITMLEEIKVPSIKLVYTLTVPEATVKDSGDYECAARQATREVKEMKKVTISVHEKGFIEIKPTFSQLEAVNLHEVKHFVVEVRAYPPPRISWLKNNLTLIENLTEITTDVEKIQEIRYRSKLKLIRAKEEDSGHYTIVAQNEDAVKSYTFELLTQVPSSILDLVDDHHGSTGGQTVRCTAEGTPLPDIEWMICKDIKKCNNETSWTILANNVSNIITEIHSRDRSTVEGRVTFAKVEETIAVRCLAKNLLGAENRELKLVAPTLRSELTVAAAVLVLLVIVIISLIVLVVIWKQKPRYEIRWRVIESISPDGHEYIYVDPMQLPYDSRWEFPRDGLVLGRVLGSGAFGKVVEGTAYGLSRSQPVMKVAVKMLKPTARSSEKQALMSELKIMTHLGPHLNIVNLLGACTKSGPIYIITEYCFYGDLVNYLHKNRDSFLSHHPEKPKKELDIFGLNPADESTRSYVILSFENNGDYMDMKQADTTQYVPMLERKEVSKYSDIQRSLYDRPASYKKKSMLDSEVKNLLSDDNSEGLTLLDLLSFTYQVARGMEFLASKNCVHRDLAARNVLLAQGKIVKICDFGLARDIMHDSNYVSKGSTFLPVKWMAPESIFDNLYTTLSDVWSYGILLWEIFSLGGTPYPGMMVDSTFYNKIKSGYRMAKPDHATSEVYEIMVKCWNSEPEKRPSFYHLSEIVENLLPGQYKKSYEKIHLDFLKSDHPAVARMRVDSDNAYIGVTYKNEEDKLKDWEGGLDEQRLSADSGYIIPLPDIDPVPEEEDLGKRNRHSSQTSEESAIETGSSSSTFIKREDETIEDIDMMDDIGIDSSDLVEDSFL

| Compound | IC50 (MCF-7 cells) [µM] | KdRTK/KdKIT, CSF1R (CSF1R) | Kd (CSF1R; read-out: Kd (nM) CSF1R) [nM] | KdRTK/KdKIT, PDGFRβ (PDGFRβ) | Kd (PDGFRβ) [nM] | KdRTK/KdKIT, PDGFRα (PDGFRα) | Kd (PDGFRα) [nM] | Potency improvement Kd19/Kd27, CSF1R (CSF1R; 27 versus 19) | Kd (CSF1R; bound stated, read-out: Kd against CSF1R) [nM] | Potency improvement Kd19/Kd27, PDGFRβ (PDGFRβ; 27 versus 19) | Potency improvement Kd19/Kd27, PDGFRα (PDGFRα; 27 versus 19) |
| --- | --- | --- | --- | --- | --- | --- | --- | --- | --- | --- | --- |
| O=C(Nc1ccccc1)Nc1ccc(Nc2cc(-c3ccccc3)ncn2)cc1 [Compound 19] | 1.23 ± 0.89 | 132 | 2900 | 4 | 80 | 44 | 960 |  |  |  |  |
| O=C(CN1CCOCC1)Nc1cccc(-c2cc(Nc3ccc(NC(=O)Nc4ccccc4)cc3)ncn2)c1 [Compound 27] | 1.55 ± 0.75 | 110 | 1100 | 7 | 70 | 11 | 110 | 2.6 | > 1000 | 1.1 | 8.7 |
